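Compound exposure: 48 hours, 5 concentrations, 96-well plates. Definition used: TGI = concentration required for complete inhibition of growth.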
Key:
Test in all cases: NCI-60 cell line screen, 48 h
SN12C renal = system: SN12C renal
UACC-62 melanoma = system: UACC-62 melanoma
MDA-N = system: MDA-N
HS 578T breast = system: HS 578T breast
SK-OV-3 ovarian = system: SK-OV-3 ovarian
A498 renal = system: A498 renal
EKVX NSCLC = system: EKVX NSCLC
NCI/ADR-RES ovarian = system: NCI/ADR-RES ovarian
NCI-H460 lung = system: NCI-H460 lung
CCRF-CEM leukemia = system: CCRF-CEM leukemia
HCT-116 colon = system: HCT-116 colon
SR leukemia = system: SR leukemia
PC-3 prostate = system: PC-3 prostate
COLO 205 colon = system: COLO 205 colon
SF-295 CNS = system: SF-295 CNS
OVCAR-4 ovarian = system: OVCAR-4 ovarian
A549 NSCLC = system: A549 NSCLC
MALME-3M melanoma = system: MALME-3M melanoma
NCI-H522 lung = system: NCI-H522 lung

| Compound | TGI (SN12C renal) [µM] | TGI (UACC-62 melanoma) [µM] | TGI (MDA-N) [µM] | TGI (HS 578T breast) [µM] | TGI (SK-OV-3 ovarian) [µM] | TGI (A498 renal) [µM] | TGI (EKVX NSCLC) [µM] | TGI (NCI/ADR-RES ovarian) [µM] | TGI (NCI-H460 lung) [µM] | TGI (CCRF-CEM leukemia) [µM] | TGI (HCT-116 colon) [µM] | TGI (SR leukemia) [µM] | TGI (PC-3 prostate) [µM] | TGI (COLO 205 colon) [µM] | TGI (SF-295 CNS) [µM] | TGI (OVCAR-4 ovarian) [µM] | TGI (A549 NSCLC) [µM] | TGI (MALME-3M melanoma) [µM] | TGI (NCI-H522 lung) [µM] |
| --- | --- | --- | --- | --- | --- | --- | --- | --- | --- | --- | --- | --- | --- | --- | --- | --- | --- | --- | --- |
| Cc1cnc(-c2c[nH]c3ccccc23)nc1-c1c[nH]c2ccccc12 | 8.53 | 17.4 | 15.8 | > 100 | 24 | 7.03 | 19.3 | > 100 | 14.8 | 4.92 | 16.4 | 33.9 | 14.2 | 16.8 | 15.2 | 24.3 | 20.2 | – | – |
| Cc1nn(C(=O)c2ccc(Cl)cc2)c2c1C(c1cccc([N+](=O)[O-])c1)SC(N)=N2 (configuration not stated) | > 10 | > 10 | > 10 | > 10 | > 10 | – | > 10 | > 10 | > 10 | > 10 | > 10 | > 10 | > 10 | > 10 | > 10 | > 10 | > 10 | > 10 | > 10 |
| CCOC(=O)C(NCc1ccc2c(c1)OCO2)(NC(=O)c1ccccc1)C(F)(F)F (configuration not stated) | > 100 | > 100 | > 100 | > 100 | > 100 | – | > 100 | > 100 | – | 67.8 | > 100 | > 100 | > 100 | > 100 | > 100 | > 100 | > 100 | > 100 | > 100 |
| Cc1nc2ccccc2c(=O)n1NC(=O)c1ccc([N+](=O)[O-])cc1 | > 100 | > 100 | > 100 | > 100 | > 100 | > 100 | > 100 | – | > 100 | > 100 | > 100 | > 100 | > 100 | > 100 | > 100 | > 100 | > 100 | > 100 | > 100 |
| CC(=O)Nc1ccc(CNc2cc(=O)n(C)c(=O)[nH]2)cc1 | > 100 | > 100 | > 100 | > 100 | > 100 | – | > 100 | > 100 | > 100 | > 100 | > 100 | > 100 | > 100 | > 100 | > 100 | > 100 | > 100 | > 100 | > 100 |
| COc1ccc(N=C2C(=Nc3ccc(OC)cc3)N(S(=O)(=O)c3ccccc3)C(=S)N2c2ccccc2)cc1 | > 100 | > 100 | > 100 | > 100 | > 100 | – | > 100 | > 100 | > 100 | – | – | > 100 | > 100 | > 100 | > 100 | – | > 100 | > 100 | > 100 |
| O=C(NNc1ccnc2cc(Cl)ccc12)/C(=C\c1ccccc1Cl)NC(=O)c1ccccc1 | > 100 | 70.9 | > 100 | > 100 | > 100 | – | > 100 | 73.7 | > 100 | > 100 | > 100 | > 100 | > 100 | 81.8 | 96.1 | > 100 | > 100 | > 100 | 39.9 |
| O=C(O)[C@@H]1CCC(=O)N1C(c1ccc2c(c1)OCO2)c1ccc2c(c1)OCO2 | > 100 | > 100 | > 100 | > 100 | – | > 100 | > 100 | > 100 | > 100 | – | > 100 | > 100 | > 100 | > 100 | > 100 | > 100 | > 100 | > 100 | > 100 |
| CCOC(=O)C(C)(C(=O)OCC)/C(Cl)=C\Cl | > 100 | > 100 | > 100 | > 100 | > 100 | – | > 100 | > 100 | > 100 | > 100 | > 100 | > 100 | > 100 | > 100 | > 100 | > 100 | > 100 | > 100 | > 100 |
| COC(=O)[C@H]1C[C@H]1NC(=O)C(CC(=O)OCc1ccccc1)NC(=O)OCc1ccccc1 (some centres not stated) | > 100 | – | > 100 | > 100 | > 100 | > 100 | > 100 | 91.5 | 72.4 | > 100 | > 100 | > 100 | > 100 | 43.2 | > 100 | – | > 100 | – | > 100 |
| N#Cc1c(NCCc2ccc(F)cc2)c2ccccc2n2c1nc1ccccc12 | > 100 | 32.8 | > 100 | 32 | > 100 | 53.1 | 29.3 | 59.2 | > 100 | > 100 | > 100 | > 100 | 82.7 | > 100 | 65.4 | 9.16 | > 100 | – | – |
| COc1cc(C=C2N=C(c3ccccc3)N(n3c(-c4ccccc4)nc4ccccc4c3=O)C2=O)cc(OC)c1OC | 36.2 | 51 | 92.6 | 51.6 | 91.4 | – | 83.5 | > 100 | 47.2 | > 100 | 48.3 | > 100 | > 100 | 52.8 | 41 | 96.5 | > 100 | 38.6 | 39.7 |
| O=C(O)c1ccccc1CC1Cc2ccc3c(c2C1=O)CCC3 (configuration not stated) | > 100 | > 100 | > 100 | > 100 | > 100 | – | > 100 | > 100 | > 100 | > 100 | > 100 | > 100 | > 100 | > 100 | > 100 | > 100 | > 100 | > 100 | > 100 |
| c1ccc(C2SCc3nc4cc5ccccc5cc4n32)cc1 (configuration not stated) | > 100 | > 100 | > 100 | > 100 | > 100 | – | > 100 | > 100 | – | > 100 | > 100 | > 100 | > 100 | > 100 | > 100 | > 100 | > 100 | > 100 | – |
| CCC(=O)N1NC(=O)C(CC)(CC)C1=O | > 100 | > 100 | > 100 | > 100 | > 100 | – | > 100 | > 100 | > 100 | > 100 | > 100 | > 100 | > 100 | > 100 | > 100 | > 100 | > 100 | – | > 100 |
| Oc1ccc2oc3c(O)c4ccccc4cc3c2c1 | 8.32 | 1.67 | 9.89 | > 100 | 53.2 | 9.33 | – | 9.74 | 53.9 | 8.47 | 4.16 | 5.52 | > 100 | 28 | – | 13 | > 100 | 33.4 | 2.71 |
| CCn1c(-c2ccc(F)cc2)nc2c1C(=O)c1ccccc1C2=O | > 100 | > 100 | > 100 | > 100 | > 100 | – | > 100 | > 100 | > 100 | > 100 | > 100 | > 100 | > 100 | > 100 | > 100 | > 100 | > 100 | > 100 | > 100 |
| O=[As](O)(O)c1ccc(N=Nc2ccc([As](=O)(O)O)cc2)cc1 | > 100 | > 100 | > 100 | > 100 | – | > 100 | > 100 | > 100 | > 100 | – | > 100 | > 100 | > 100 | – | > 100 | > 100 | > 100 | > 100 | > 100 |
| CC(=O)Nc1sc([N+](=O)[O-])cc1S(=O)(=O)c1ccc(Cl)cc1 | > 100 | 22.4 | > 100 | 17.2 | 15.6 | > 27.9 | > 100 | 64 | 10.2 | > 100 | 19.8 | – | 10.6 | 1.77 | 8.07 | > 100 | > 54.6 | 15.3 | 11 |
| C=CCn1c(C23CC4CC(CC(C4)C2)C3)n[nH]c1=S | > 100 | > 100 | > 100 | > 100 | > 100 | > 100 | – | > 100 | > 100 | > 100 | > 100 | 29.3 | > 100 | > 100 | > 100 | > 100 | – | > 100 | > 100 |
| C=CCCCC1SC2=C(CC)CCCN2C1=O (configuration not stated) | > 100 | > 100 | > 100 | > 100 | > 100 | > 100 | > 100 | > 100 | – | – | > 100 | > 100 | > 100 | > 100 | > 100 | > 100 | > 100 | > 100 | > 100 |
| O=C(CCCN1CCC2(CC1)NC(=O)c1ccccc1O2)c1ccc(F)cc1 | > 100 | > 100 | > 100 | > 100 | > 100 | – | > 100 | > 100 | > 100 | > 100 | > 100 | > 100 | > 100 | > 100 | > 100 | > 100 | > 100 | > 100 | > 100 |
| C1=Nc2sc3c(c2C2=NCCN12)CCCC3 | – | 29 | 35.5 | 51.8 | – | 46.6 | 32 | 34.6 | 32.4 | – | 30.5 | > 100 | 30.7 | 53.2 | 39.6 | 42.1 | – | 32.9 | 30.9 |
| COc1ccc(OC)c(C23CCCC(C2)N(C)CC3)c1 (configuration not stated) | > 100 | 46 | 74.6 | > 100 | – | 89.9 | > 100 | > 100 | 52 | – | 41.3 | 44.7 | 41.2 | – | 66.2 | 62.1 | > 100 | – | – |
| CN1C(=O)N/C(=C\c2ccc(S(=O)(=O)N/N=C\C(O)C(O)C(O)CO)cc2)C1=O (configuration not stated) | > 100 | > 100 | > 100 | > 100 | > 100 | > 100 | > 100 | > 100 | > 100 | > 100 | > 100 | > 100 | > 100 | > 100 | > 100 | > 100 | > 100 | > 100 | – |
| CO/N=C(/C(=O)N(C(=O)/C(=N/OC)c1csc(NC(c2ccccc2)(c2ccccc2)c2ccccc2)n1)n1cnn(CC(=O)OC(C)(C)C)c1=O)c1csc(NC(c2ccccc2)(c2ccccc2)c2ccccc2)n1 | > 10 | > 10 | > 10 | > 10 | > 10 | > 10 | > 10 | > 10 | > 10 | > 10 | > 10 | – | 3.44 | > 10 | > 10 | > 10 | > 10 | > 10 | > 10 |
| Cc1cccc(/C=C2\CCCc3ccccc3C2=O)c1 | 38 | 27.5 | 55 | 32.6 | > 100 | – | 57.1 | 69.2 | 36.5 | 35.1 | 31.2 | 40.3 | > 100 | 35.8 | 41.8 | 47.7 | > 100 | 35.3 | 33.1 |
